Measurements as given in article PMC11617632, “Long-range conformational changes in the nucleotide-bound states of the DEAD-box helicase Vasa” (Biophysical Journal, 2024).
Values belong to the molecule of their own block, whether it stands above or below them.

Key:
Type in all cases: binding
[1] = target: T1, Vasa (Bombyx mori, UniProt O01378); experiment: NMR methyl CSP titration, fast exchange (not saturated; KD inaccurate)
T1 construct: gene BmVLG
T1 sequence (O01378 135-564): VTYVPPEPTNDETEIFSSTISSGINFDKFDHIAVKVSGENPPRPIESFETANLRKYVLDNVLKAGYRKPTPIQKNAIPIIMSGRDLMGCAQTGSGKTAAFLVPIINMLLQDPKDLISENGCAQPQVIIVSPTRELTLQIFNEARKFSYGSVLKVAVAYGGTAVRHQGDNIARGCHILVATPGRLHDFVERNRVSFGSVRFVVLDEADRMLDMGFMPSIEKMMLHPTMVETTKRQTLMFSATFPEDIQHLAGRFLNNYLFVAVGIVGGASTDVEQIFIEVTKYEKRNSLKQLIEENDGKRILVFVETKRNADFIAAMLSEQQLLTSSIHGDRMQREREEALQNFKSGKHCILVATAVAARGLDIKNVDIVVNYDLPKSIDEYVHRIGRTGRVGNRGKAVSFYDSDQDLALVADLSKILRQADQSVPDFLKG

[2] = target: T2, Vasa (Bombyx mori, UniProt O01378); experiment: NMR CSP titration, fast exchange
T2 construct: gene BmVLG
T2 sequence (O01378 135-400): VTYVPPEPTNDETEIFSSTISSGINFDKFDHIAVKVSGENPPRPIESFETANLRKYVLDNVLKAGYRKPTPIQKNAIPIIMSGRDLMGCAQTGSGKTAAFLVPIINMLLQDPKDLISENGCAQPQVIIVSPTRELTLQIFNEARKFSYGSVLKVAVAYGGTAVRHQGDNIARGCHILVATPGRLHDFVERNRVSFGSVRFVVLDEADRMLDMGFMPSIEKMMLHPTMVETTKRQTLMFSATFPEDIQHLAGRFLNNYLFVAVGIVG

[3] = target: T1, Vasa; experiment: NMR titration, 1H-13C methyl-HMQC, slow exchange

Kd [1]: ~18800 µM
Compound: Nc1ncnc2c1ncn2[C@@H]1O[C@H](CO[P@](=O)(O)O[P@](=O)(O)O[P@@](=O)(O)S)[C@@H](O)[C@H]1O [ATPγS, adenosine 5′-γ-thiotriphosphate]

Compound: Nc1ncnc2c1ncn2[C@@H]1O[C@H](COP(=O)(O)OP(=O)(O)OP(=O)(O)O)[C@@H](O)[C@H]1O [ATP]
Kd [2]: 1600 ± 600 µM

Kd [3]: 53 ± 15 µM
Compound: Nc1ncnc2c1ncn2[C@@H]1O[C@H](COP(=O)(O)OP(=O)(O)O)[C@@H](O)[C@H]1O [ADP]
